Data on 2 compounds can be found in US20210380602A1, “NOVEL PYRROLE AND PYRIDONE DERIVATIVES AND USES THEREOF” (VIRGINIA COMMONWEALTH UNIVERSITY, priority 2018, published 2021).

Where two headings read alike, the source gives them in different places.

The subject of the assay is HIV-1IIIB. Description: Anti-HIV cytoprotection assay in CEM-SS cells infected with HIV-1IIIB, XTT viability readout after 6 days. In kind it is cell-based. The protocol: In some aspect, CEM-SS cells were incubated at 37° C./5% CO2 with serially diluted compound and a known titer of HIV-1IIIB for 6 days. The CEM-SS cell line is a derivative of the human T lymphosarcoma cell line CEM that is permissive for vif-deficient HIV-1 replication. Following the incubation, the cells were stained with the tetrazolium dye XTT and read at 460/650 nm on a spectrophotometer to evaluate cellular viability. Efficacy and toxicity values were calculated using linear regression analysis. The efficacy of compound H-a was compared to that of dolutegravir. The EC50 of compound II-a was in a range of 0.070-0.02 nM (e.g. 0.070, 0.075, 0.080, 0.085, 0.090, 0.095, 0.010, 0.015 or 0.02 nM)
CEM-SS cells were incubated at 37° C./5% CO2 with serially diluted compound and a known titer of HIV-1IIIB for 6 days. The CEM-SS cell line is a derivative of the human T lymphosarcoma cell line CEM that is permissive for vif-deficient HIV-1 replication. Following the incubation, the cells were stained with the tetrazolium dye XTT and read at 460/650 nm on a spectrophotometer to evaluate cellular viability. Efficacy and toxicity values were calculated using linear regression analysis.
For orientation: Tetrazolium assays rely on reduction of a dye to a coloured formazan, in cell work by metabolically active cells.

The EC50 is the concentration giving half of the maximal effect. Read a low EC50 as higher potency in that assay. As for `C[C@@H]1CCO[C@H]2Cn3cc(C(=O)C(=O)NCc4ccc(F)cc4F)c(O)c3C(=O)N12` [Compound II-a], the EC50 stood at 0.095 nM.
Regarding `C[C@@H]1CCO[C@H]2Cn3cc(C(=O)NCc4ccc(F)cc4F)c(=O)c(O)c3C(=O)N12` [Compound I, Dolutegravir], a half-maximal response (Human immunodeficiency virus 1, CEM-SS, 144 h) (EC50) required 0.12 nM.
